What was measured:
Assay type in all cases: in vivo
Aedes aegypti [1] = assay: Repellency on treated membrane-covered blood-filled wells; conditions: 20 min; for Avg % Repellency: relative to control
Procedure: (§1) The invention is illustrated by, but not limited to, the following examples. • Five replicates of 250 adult female mosquitoes each were placed in clear plastic cages with access to five warmed, blood-filled, membrane-covered wells. The mosquitoes were Aedes aegypti unless otherwise noted. Membranes were treated with repellent. Five replicates were tested. Each replicate used a fresh batch of mosquitoes, blood and treated membranes. The number of mosquitoes probing each well was recorded at two minute intervals for 20 minutes. The total numbers of probes on each well were tallied at the end of the observation period and the average percentage repellency relative to the control was calculated for each formulation.

Aedes aegypti [2] = assay: Human forearm-in-cage test, time to first confirmed bite; conditions: max 8 hours
Procedure: (§2) In addition, human testing was performed to determine the efficacy of compounds from structure (I). Mosquito species used are described in the tables below. Each test subject was exposed to 2 products each test day. The application rate was between 0.65 ml and 1 ml/250 cm^2 for all repellents. The actual amount of repellent used was based upon the amount that provides thorough coverage of the 250 cm^2 treatment area. A repellent was applied using either a micropipette or a syringe minus the needle. The repellents were then evenly spread on the treatment area with a gloved finger. Each test subject's forearms were allowed to air dry for approximately 30 minutes prior to the first exposure. The study coordinator or technician assisted the test subjects in inserting their arms into the test cages containing 200 mosquitoes, taking care not to rub them on the cloth sleeve, to confirm that the insects were biting. If fewer than 10 mosquitoes land on the untreated arm in 60 seconds (all would normally bite), fresh mosquitoes will be added. Typically, the ten (10) landings took place within 10-30 seconds. Both treated arms were inserted into a cage; there were two subjects (4 arms) per cage. The test subjects exposed their treated forearms to the mosquitoes in the test cages for 5 minutes. The subjects then remove their arms from the cages with assistance from the study coordinator or a technician. Exposures of each arm were repeated every 30 minutes until the repellent on that arm was determined to be no longer effective (‘breakdown’) or until 8 hours have elapsed, whichever occurred first. Breakdown occurs when the first confirmed bite is noted. A confirmed bite occurs when a bite is followed by a second bite in the same exposure period or in the next succeeding exposure period. The second bite becomes the confirming bite and the breakdown time is taken as the time of the first bite. The average of two repetitions is given.

Aedes aegypti [3] = assay: Toxicity to mosquitoes of treated surface (aluminum foil), 5 min exposure; conditions: 2.5% in ethanol, dried on foil
Procedure: A test was designed to determine if two test samples at 2 concentrations applied to a surface are toxic to mosquitoes. Aluminum foil squares, […] were treated with one of the test samples and after drying were placed on top of large Petri dishes, 6″ in diameter. Inverted polystyrene cups, 3.5″ in diameter and 3″ high, each with a circular hole drilled through the bottom, and the sides and top painted with Fluon, were used as the treatment containers. They were placed on top of the Petri dishes and secured with rubber bands. Mosquitoes were aspirated and gently blown through the drilled hole into the arena. A plastic disc was then placed over the hole. Five replicates of ten female Aedes aegypti were used for the test sample treatment and an additional 5 replicates of 10 mosquitoes were used for solvent control. Mosquitoes were constantly exposed to the dried test material for 5 minutes, after which time they were transferred into clean containers, where they were provided a sucrose solution for nourishment. The formal observations for knockdown were made at 1 and 4 hours. At 24 hours the numbers of live, moribund and dead mosquitoes were counted.

Aedes aegypti [4] = assay: Human forearm-in-cage test, time to first confirmed bite; conditions: without the use of polymers or other inert ingredients; species not stated
Culex quinquefasciatus [5] = assay: Repellency on treated membrane-covered blood-filled wells; conditions: 7% in isopropanol, 20 min; for Avg % Repellency: relative to control
Procedure: as §1

[6] = system: Anopheles quadrimaculatus; assay: Human forearm-in-cage test, time to first confirmed bite; conditions: 10%, max 8 hours
Procedure: as §2

Culex quinquefasciatus [7] = assay: as above; conditions: 10%, max 8 hours
Procedure: as §2

## CCCCCC1C(=O)CCC1CC(=O)OCCC (stereo not drawn) [Propyl Dihydrojasmonate - high epi, Propyl Dihydrojasmonate]
Aedes aegypti [1]; 2.5% in isopropanol
  Avg # Probes: 2
  Avg % Repellency: 95%

## CCCCCC1C(O)CCC1CC(=O)OCC (stereo not shown) [Ethyl Dihydrojasmolate]
Aedes aegypti [1]; 7% in isopropanol
  Avg # Probes: 0
  Avg % Repellency: 100%

## CCCCCCC1CC(=O)C=C(C)C1 (stereo not shown) [3-methyl-5-hexyl-2-cyclohexenone]
Aedes aegypti [1]; 5% in isopropanol
  Avg # Probes: 0
  Avg % Repellency: 100%

## CCCCCC1CCC(=O)O1 (stereo not shown) [gamma-nonalactone]
Aedes aegypti [1]; 7% in isopropanol
  Avg # Probes: 20.4
  Avg % Repellency: 77.1%

## CCCCCC1C(=O)CCC1CC(C)=O (stereo not shown) [amyl cyclopentanone propanone]
Aedes aegypti [1]; 7% in isopropanol
  Avg # Probes: 0
  Avg % Repellency: 100%

## CCCCCCCCCC1CCC(=O)O1 (stereo not shown) [gamma-tridecalactone]
Aedes aegypti [2]; 30% in isopropanol
  100% bite protection time: 1 h
Aedes aegypti [1]; 5% in isopropanol
  Avg # Probes: 3.1
  Avg % Repellency: 94.4%
Aedes aegypti [1]; 7% in isopropanol
  Avg # Probes: 1.8
  Avg % Repellency: 97.5%

## CCCCCC1C(=O)CCC1CC(=O)N(CC)CC (stereo not shown) [methyl dihydrojasmonate amide]
Aedes aegypti [1]; 2.5% in isopropanol
  Avg # Probes: 18.6
  Avg % Repellency: 55%
Aedes aegypti [1]; 5% in isopropanol
  Avg # Probes: 6.8
  Avg % Repellency: 90.1%

## CCC(C)=CCCC(C)=CCC1CCCC1O (stereo not shown) [methyl apritol]
Aedes aegypti [1]; 7% in isopropanol
  Avg # Probes: 6.6
  Avg % Repellency: 91.9%
Aedes aegypti [1]; 10% in isopropanol
  Avg # Probes: 6.8
  Avg % Repellency: 89.2%

## CCCCCCCCCCC1CCC(=O)O1 (stereo not shown) [gamma-tetradecalactone]
Aedes aegypti [2]; 15% in isopropanol
  100% bite protection time: 0.5 hr^
Aedes aegypti [1]; 7% in isopropanol
  Avg # Probes: 0.8
  Avg % Repellency: 98.9%

## CCCCCC1C(=O)CCC1CC(=O)OCC=C(C)C (stereo not shown) [Prenyl Dihydrojasmonate]
Aedes aegypti [1]; 7% in isopropanol
  Avg # Probes: 2.8
  Avg % Repellency: 92.6%

## CCCCC1CC(=O)C=C(C)C1 (stereo not shown) [3-methyl-5-butyl-2-cyclohexenone]
Aedes aegypti [1]; 5% in isopropanol
  Avg # Probes: 1
  Avg % Repellency: 97%
Aedes aegypti [3]
  1 hr knockdown: 100%
  4 hr knockdown: 100%
  24 hr mortality: 88%

## farnesyl cyclopentanol
Aedes aegypti [1]; 7% in isopropanol
  Avg # Probes: 16.2
  Avg % Repellency: 67.8%

## CCCCCCCCCC1CCCC(=O)O1 (stereo not shown) [delta-tetradecalactone]
Aedes aegypti [1]; 7% in isopropanol
  Avg # Probes: 1.6
  Avg % Repellency: 97.3%

## CCCCCCCCC1(C)CCC(=O)O1 (stereo not shown) [gamma Methyl Dodecalactone]
Aedes aegypti [1]; 5% in isopropanol
  Avg # Probes: 1
  Avg % Repellency: 98%

## CCCCCC1C(=O)CCC1CC(=O)OCCC (stereo not shown) [Propyl Dihydrojasmonate]
Aedes aegypti [2]; 15% in isopropanol
  100% bite protection time: <0.5 hr ^
Aedes aegypti [2]; 30% in isopropanol
  100% bite protection time: 1 h
Aedes aegypti [2]; 30% in squalane
  100% bite protection time: 2.75 h
Aedes aegypti [1]; 5% in isopropanol
  Avg # Probes: 4
  Avg % Repellency: 97%
Aedes aegypti [1]; 5% in squalane
  Avg # Probes: 0
  Avg % Repellency: 99%
Aedes aegypti [1]; 7% in isopropanol
  Avg # Probes: 2.6
  Avg % Repellency: 95.6%
Aedes aegypti [4]
  prolonged repellency: ≥ 8 h

## CCCCCCCCC1CCC(=O)O1 (stereo not shown) [gamma-dodecalactone]
Aedes aegypti [2]; 10% in isopropanol
  100% bite protection time: 1.25 h
Culex quinquefasciatus [5]
  Avg # Probes: 0
  Avg % Repellency: 100%
Aedes aegypti [1]; 7% in isopropanol
  Avg # Probes: 0
  Avg % Repellency: 100%

## CCN(CC)C(=O)c1cccc(C)c1 [DEET ®, N,N-Diethyl-m-toluamide, reference compound]
Aedes aegypti [1]; 4% in isopropanol
  Avg # Probes: 8.4
  Avg % Repellency: 90.8%
Aedes aegypti [1]; 10% in isopropanol
  Avg # Probes: 0.8
  Avg % Repellency: 98%

## CCC(C)CCCC(C)CCC1CCCC1=O (stereo not shown) [tetrahydromethyl apritone]
Aedes aegypti [1]; 7% in isopropanol
  Avg # Probes: 11
  Avg % Repellency: 74.9%

## CCCCCCCC1CC(=O)C=C(C)C1 (stereo not shown) [3-methyl-5-heptyl-2-cyclohexenone]
Aedes aegypti [1]; 5% in isopropanol
  Avg # Probes: 0
  Avg % Repellency: 99%
Aedes aegypti [3]
  1 hr knockdown: 100%
  4 hr knockdown: 100%
  24 hr mortality: 98%

## CC/C(C)=C/CC/C(C)=C/CC1CCCC1=O (stereo not shown) [methyl apritone]
Aedes aegypti [2]; 10% in isopropanol
  100% bite protection time: <0.5 hr ^
Culex quinquefasciatus [5]
  Avg # Probes: 0
  Avg % Repellency: 100%
Aedes aegypti [1]; 7% in isopropanol
  Avg # Probes: 7.6
  Avg % Repellency: 90.4%
Aedes aegypti [1]; 10% in isopropanol
  Avg # Probes: 3.6
  Avg % Repellency: 93.9%

## CCCCCC1C(O)CCC1CCO (stereo not shown) [dihydrojasmindiol]
Aedes aegypti [1]; 7% in isopropanol
  Avg # Probes: 7.2
  Avg % Repellency: 84.3%

## CCCCCCCC1CCCC(=O)O1 (stereo not shown) [delta-dodecalactone]
Aedes aegypti [1]; 7% in isopropanol
  Avg # Probes: 0
  Avg % Repellency: 100%

## CCCCCC1C(O)CCC1CC(=O)OCC=C(C)C (stereo not shown) [Prenyl Dihydrojasmolate]
Aedes aegypti [1]; 7% in isopropanol
  Avg # Probes: 3.2
  Avg % Repellency: 92.2%

## CCCCCCOC(=O)CC1CCC(=O)C1CCCCC (stereo not shown) [Hexyl Dihydrojamonate]
Aedes aegypti [1]; 7% in isopropanol
  Avg # Probes: 30.4
  Avg % Repellency: 66.1%

## CCCCCCC1CC(C)=CC(O)C1 (stereo not shown) [3-methyl-5-hexyl-2-cyclohexenol]
Aedes aegypti [1]; 5% in isopropanol
  Avg # Probes: 1
  Avg % Repellency: 91%

## CCCCCC1C(=O)CCC1CC(=O)OCCC (stereo not drawn) [Propyl Dihydrojasmonate - low epi, Propyl Dihydrojasmonate]
Aedes aegypti [1]; 2.5% in isopropanol
  Avg # Probes: 6
  Avg % Repellency: 85%

## CCCCCCCCCC1(C)CCC(=O)O1 (stereo not shown) [gamma Methyl Tridecalactone]
Aedes aegypti [1]; 5% in isopropanol
  Avg # Probes: 4
  Avg % Repellency: 96%

## dihydrojasmolactone
Aedes aegypti [1]; 7% in isopropanol
  Avg # Probes: 0
  Avg % Repellency: 100%

## CC1CCC(C(C)(C)O)C(O)C1 (stereo not shown) [PMD, p-Menthane-3,8-diol, reference compound]
[6]
  100% bite protection time: 6.75 h
Culex quinquefasciatus [7]
  100% bite protection time: 4.25 h
Aedes aegypti [2]; 5% in isopropanol
  100% bite protection time: 2.75 h
Aedes aegypti [2]; 10% in isopropanol
  100% bite protection time: 6.25 h
Aedes aegypti [1]; 7% in isopropanol
  Avg # Probes: 9
  Avg % Repellency: 79.2%

## CC(C)CCCC(C)CCC1CCCC1=O (stereo not shown) [tetrahydroapritone]
Aedes aegypti [1]; 7% in isopropanol
  Avg # Probes: 3.8
  Avg % Repellency: 93.7%

## CCCCCC1C(O)CCC1CC(=O)OC (stereo not shown) [Methyl Dihydrojasmolate]
Aedes aegypti [1]; 4% in isopropanol
  Avg # Probes: 0.6
  Avg % Repellency: 98.8%
Aedes aegypti [1]; 7% in isopropanol
  Avg # Probes: 0
  Avg % Repellency: 100%
